Measured values reported in patent US8916567B2, “Certain crystalline hydrates, pharmaceutical compositions thereof and methods for preparation and use thereof” (Universal Technology Alliance, Inc., priority 2009, dated 2014).
In brackets after ≈: the same amount, converted by molar mass.

What was measured:
Format in all cases: cell-based
[1] = tested on: Staphylococcus aureus; test: Minimum inhibitory concentration (MIC) in vitro, agar dilution method, quality control strain; conditions: Staphylococcus aureus, ATCC27853
Excerpt: (§1) Hydrates Samples: • The 1/2 hydrates prepared according to Example 2; • Content (purity % wt): 99.0%; • The 1/12 hydrates prepared according to Example 253; • Content (purity % wt): 98.9%; • The 2/7 hydrates prepared according to Example 106; • Content (purity % wt): 98.8%; • The 2/5 hydrates prepared according to Example 162; • Content (purity % wt): 99.0%; • The 3/4 hydrates prepared according to Example 337; • Content (purity % wt): 98.8%; • Preparation: dissolved in DMSO, and further diluted with sterile distilled water to desired concentration. • The hydrates samples were supplied by Sichuan Beilike Biotechnology LTD.
(§2) Anhydrous Sample: • The anhydrous compounds prepared according to Example 1. • Content (purity % wt): 98.6%; • Preparation: dissolved in DMSO, and further diluted with sterile distilled water to desired concentration; • The anhydrous sample was supplied by Sichuan Beilike Biotechnology LTD.
(§3) Control Samples • Vancomycin: provided by Sichuan Beilike Biotechnology LTD, purchased from Eli Lilly Japan K.K. • Lot No.: WM16151 (production date: Apr. 10, 2007, expiration date: Apr. 9, 2009). • Specification: 500 mg/bottle; solubility (physicochemical properties): soluble in water. • Linezolid (LZ): provided by Sichuan Beilike Biotechnology LTD.
(§4) Bacteria Strains • Clinically isolated strains: clinically isolated bacterial pathogens collected in Sichuan and Beijing areas from March 2007 to May 2008. • Species include: Staphylococcus aureus MRSA, Staphylococcus aureus MSSA, S. epidermidis MRSE, S. epidermidis MSSE, E. feacalis, and E. feacium, a total of 51 strains. • Quality control strains: Staphylococcus aureus […] strain kept in Sichuan Industrial Institute of Antibiotics, purchased from the medical testing center of the Ministry of Health, China.
(§5) Experimental Method: • Measurement of the minimum inhibitory concentration (MIC) in vitro: • The minimum inhibitory concentration (MIC) of each test sample against test strains was measured by using the agar dilution method recommended by the U.S. National Committee for Clinical Laboratory Standards (CLSI/NCCIs).
(§6) Based on the CLSI/NCCL's testing standard with respect to vancomycin and linezolid (see Table 6), the minimum inhibitory concentration (MIC) values of every strain were reported, and the MIC50 (the concentration that inhibits 50% of the different strains of bacteria), MIC90 (the concentration that inhibits 90% of the different strains of bacteria), and MICrange (the range of the MIC value of the tested strains) were observed.

[2] = tested on: E. feacalis; test: Minimum inhibitory concentration (MIC) in vitro, agar dilution method
Excerpt: as §1, §2, §3, §4, §5, §6

[3] = tested on: S. epidermidis MSSE; test: as above
Excerpt: as §1, §2, §3, §4, §5, §6

[4] = tested on: Staphylococcus aureus MRSA; test: as above
Excerpt: as §1, §2, §3, §4, §5, §6

[5] = tested on: S. epidermidis MRSE; test: as above
Excerpt: as §1, §2, §3, §4, §5, §6

[6] = tested on: Staphylococcus aureus MSSA; test: as above
Excerpt: as §1, §2, §3, §4, §5, §6

[7] = tested on: E. feacium; test: as above
Excerpt: as §1, §2, §3, §4, §5, §6

[8] = Staphylococcus epidermidis, MRSE

`CN[C@H](CC(C)C)C(=O)N[C@H]1C(=O)N[C@@H](CC(N)=O)C(=O)N[C@H]2C(=O)N[C@H]3C(=O)N[C@H](C(=O)N[C@H](C(=O)O)c4cc(O)cc(O)c4-c4cc3ccc4O)[C@H](O)c3ccc(c(Cl)c3)Oc3cc2cc(c3O[C@@H]2O[C@H](CO)[C@@H](O)[C@H](O)[C@H]2O[C@H]2C[C@](C)(N)[C@H](O)[C@H](C)O2)Oc2ccc(cc2Cl)[C@H]1O` [Vancomycin, reference compound] showed an MIC [1] of 1 µg/mL (≈ 0.69 µM), an MIC50 [2] of 1 µg/mL (≈ 0.69 µM) and an MIC90 [2] of 2 µg/mL (≈ 1.38 µM). It also gave an MICrange ([2]; E. feacalis (5 strains), clinically isolated) of 0.25 to 2 µg/mL, an MIC ([2]; strain Efa 54 (Table 8 No. 20)) of 1 µg/mL (≈ 0.69 µM) and an MIC ([2]; strain Efa 116 (Table 8 No. 16)) of 0.5 µg/mL (≈ 0.345 µM). The MIC ([2]; strain Efa 907 (Table 8 No. 19)) was 1 µg/mL (≈ 0.69 µM), the MIC ([2]; strain Efa 3006 (Table 8 No. 18)) was 2 µg/mL (≈ 1.38 µM) and the MIC ([2]; strain Efa 33748 (Table 8 No. 17)) was 0.25 µg/mL (≈ 0.173 µM). It also gave an MICrange ([3]; S. ep MSSE (10 strains), clinically isolated) of 0.06 to 1 µg/mL, an MIC50 ([3]; Staphylococcus epidermidis) of 0.5 µg/mL (≈ 0.345 µM) and an MIC90 ([3]; Staphylococcus epidermidis) of 1 µg/mL (≈ 0.69 µM). For the same compound, the MIC ([3]; Staphylococcus epidermidis, strain S. ep MSSE87 (Table 7 No. 23)) was 0.125 µg/mL (≈ 0.0863 µM), the MIC ([3]; Staphylococcus epidermidis, strain S. ep MSSE88 (Table 8 No. 5)) was 1 µg/mL (≈ 0.69 µM) and the MIC ([3]; Staphylococcus epidermidis, strain S. ep MSSE113 (Table 7 No. 24)) was 0.5 µg/mL (≈ 0.345 µM). It also gave an MIC ([3]; Staphylococcus epidermidis, strain S. ep MSSE116 (Table 7 No. 25)) of 0.125 µg/mL (≈ 0.0863 µM), an MIC ([3]; Staphylococcus epidermidis, strain S. ep MSSE118 (Table 8 No. 2)) of 1 µg/mL (≈ 0.69 µM) and an MIC ([3]; Staphylococcus epidermidis, strain S. ep MSSE119 (Table 7 No. 27)) of 0.125 µg/mL (≈ 0.0863 µM). The MIC ([3]; Staphylococcus epidermidis, strain S. ep MSSE137 (Table 8 No. 4)) was 1 µg/mL (≈ 0.69 µM), the MIC ([3]; Staphylococcus epidermidis, strain S. ep MSSE140 (Table 8 No. 3)) was 0.5 µg/mL (≈ 0.345 µM) and the MIC ([3]; Staphylococcus epidermidis, strain S. ep MSSE142 (Table 7 No. 26)) was 0.06 µg/mL (≈ 0.0414 µM). The MIC ([3]; Staphylococcus epidermidis, strain S. ep MSSE153 (Table 8 No. 1)) was 0.5 µg/mL (≈ 0.345 µM), the MICrange ([4]; S. MRSA (10 strains), clinically isolated) was 0.5 to 1 µg/mL and the MIC50 ([4]; Staphylococcus aureus, MRSA) was 1 µg/mL (≈ 0.69 µM). It also gave an MIC90 ([4]; Staphylococcus aureus, MRSA) of 1 µg/mL (≈ 0.69 µM), an MIC ([4]; Staphylococcus aureus, MRSA, strain S. MRSA 29 (Table 7 No. 15)) of 0.5 µg/mL (≈ 0.345 µM) and an MIC ([4]; Staphylococcus aureus, MRSA, strain S. MRSA 101 (Table 7 No. 14)) of 0.5 µg/mL (≈ 0.345 µM). It also gave an MIC ([4]; Staphylococcus aureus, MRSA, strain S. MRSA 201 (Table 7 No. 13)) of 1 µg/mL (≈ 0.69 µM), an MIC ([4]; Staphylococcus aureus, MRSA, strain S. MRSA B27 (Table 7 No. 21)) of 1 µg/mL (≈ 0.69 µM) and an MIC ([4]; Staphylococcus aureus, MRSA, strain S. MRSA B105 (Table 7 No. 17)) of 1 µg/mL (≈ 0.69 µM). The MIC ([4]; Staphylococcus aureus, MRSA, strain S. MRSA B143 (Table 7 No. 19)) was 0.5 µg/mL (≈ 0.345 µM), the MIC ([4]; Staphylococcus aureus, MRSA, strain S. MRSA B151 (Table 7 No. 20)) was 1 µg/mL (≈ 0.69 µM) and the MIC ([4]; Staphylococcus aureus, MRSA, strain S. MRSA B164 (Table 7 No. 16)) was 1 µg/mL (≈ 0.69 µM). It also gave an MIC ([4]; Staphylococcus aureus, MRSA, strain S. MRSA B199 (Table 7 No. 22)) of 1 µg/mL (≈ 0.69 µM), an MIC ([4]; Staphylococcus aureus, MRSA, strain S. MRSA B617 (Table 7 No. 18)) of 5 µg/mL (≈ 3.45 µM) and an MICrange ([5]; S. ep MRSE (10 strains), clinically isolated) of 0.25 to 1 µg/mL. The MIC50 [5, 8] was 1 µg/mL (≈ 0.69 µM), the MIC90 [5, 8] was 1 µg/mL (≈ 0.69 µM) and the MIC ([5]; Staphylococcus epidermidis, MRSE, strain S. ep MRSE4 (Table 8 No. 9)) was 1 µg/mL (≈ 0.69 µM). It also gave an MIC ([5]; Staphylococcus epidermidis, MRSE, strain S. ep MRSE20 (Table 8 No. 6)) of 1 µg/mL (≈ 0.69 µM), an MIC ([5]; Staphylococcus epidermidis, MRSE, strain S. ep MRSE87 (Table 8 No. 13)) of 0.25 µg/mL (≈ 0.173 µM) and an MIC ([5]; Staphylococcus epidermidis, MRSE, strain S. ep MRSE90 (Table 8 No. 10)) of 1 µg/mL (≈ 0.69 µM). For the same compound, the MIC ([5]; Staphylococcus epidermidis, MRSE, strain S. ep MRSE101 (Table 8 No. 7)) was 1 µg/mL (≈ 0.69 µM), the MIC ([5]; Staphylococcus epidermidis, MRSE, strain S. ep MRSE105 (Table 8 No. 11)) was 0.5 µg/mL (≈ 0.345 µM) and the MIC ([5]; Staphylococcus epidermidis, MRSE, strain S. ep MRSE140 (Table 8 No. 14)) was 1 µg/mL (≈ 0.69 µM). For the same compound, the MIC ([5]; Staphylococcus epidermidis, MRSE, strain S. ep MRSE142 (Table 8 No. 12)) was 0.5 µg/mL (≈ 0.345 µM), the MIC ([5]; Staphylococcus epidermidis, MRSE, strain S. ep MRSE210 (Table 8 No. 15)) was 1 µg/mL (≈ 0.69 µM) and the MIC ([5]; Staphylococcus epidermidis, MRSE, strain S. ep MRSE211 (Table 8 No. 8)) was 0.5 µg/mL (≈ 0.345 µM). The MICrange ([6]; S. MSSA (11 strains), clinically isolated) was 0.5 to 1 µg/mL, the MIC50 ([6]; Staphylococcus aureus, MSSA) was 1 µg/mL (≈ 0.69 µM) and the MIC90 ([6]; Staphylococcus aureus, MSSA) was 1 µg/mL (≈ 0.69 µM). The MIC ([6]; Staphylococcus aureus, MSSA, strain S. MSSA 123 (Table 7 No. 3)) was 0.5 µg/mL (≈ 0.345 µM), the MIC ([6]; Staphylococcus aureus, MSSA, strain S. MSSA 187 (Table 7 No. 7)) was 0.5 µg/mL (≈ 0.345 µM) and the MIC ([6]; Staphylococcus aureus, MSSA, strain S. MSSA 195 (Table 7 No. 6)) was 1 µg/mL (≈ 0.69 µM). The MIC ([6]; Staphylococcus aureus, MSSA, strain S. MSSA 195 (Table 7 No. 12)) was 1 µg/mL (≈ 0.69 µM), the MIC ([6]; Staphylococcus aureus, MSSA, strain S. MSSA 201 (Table 7 No. 11)) was 1 µg/mL (≈ 0.69 µM) and the MIC ([6]; Staphylococcus aureus, MSSA, strain S. MSSA 232 (Table 7 No. 2)) was 0.5 µg/mL (≈ 0.345 µM). The MIC ([6]; Staphylococcus aureus, MSSA, strain S. MSSA 275 (Table 7 No. 10)) was 1 µg/mL (≈ 0.69 µM), the MIC ([6]; Staphylococcus aureus, MSSA, strain S. MSSA 466 (Table 7 No. 8)) was 0.5 µg/mL (≈ 0.345 µM) and the MIC ([6]; Staphylococcus aureus, MSSA, strain S. MSSA 519 (Table 7 No. 9)) was 1 µg/mL (≈ 0.69 µM). It also gave an MIC ([6]; Staphylococcus aureus, MSSA, strain S. MSSA 520 (Table 7 No. 4)) of 0.5 µg/mL (≈ 0.345 µM), an MIC ([6]; Staphylococcus aureus, MSSA, strain S. MSSA 580 (Table 7 No. 5)) of 1 µg/mL (≈ 0.69 µM) and an MIC50 [7] of 4 µg/mL (≈ 2.76 µM). The MIC90 [7] was 8 µg/mL (≈ 5.52 µM), the MICrange ([7]; E. feacium (5 strains), clinically isolated) was 2 to 8 µg/mL and the MIC ([7]; strain Efm 98 (Table 8 No. 21)) was 4 µg/mL (≈ 2.76 µM). For the same compound, the MIC ([7]; strain Efm 171 (Table 8 No. 25)) was 8 µg/mL (≈ 5.52 µM), the MIC ([7]; strain Efm 197 (Table 8 No. 22)) was 4 µg/mL (≈ 2.76 µM) and the MIC ([7]; strain Efm N3 (Table 8 No. 23)) was 2 µg/mL (≈ 1.38 µM). The MIC ([7]; strain Efm N4 (Table 8 No. 24)) was 8 µg/mL (≈ 5.52 µM).
